In test [1] the target is T1, Eukaryotic translation initiation factor 4E (Homo sapiens, UniProt P06730). The test is described as follows: Binding affinity to N-terminal 10His-tagged m7GDP-bound recombinant human eIF4E expressed in Escherichia coli BL21 (DE3) cells assessed as dissociation constant at 25 degreeC in presence 225 to 1000 mM of NaCl by surface plasmon resonance analysis. For orientation: Surface plasmon resonance follows binding to a sensor surface in real time, without labels.

Test [2] deals with T1, Eukaryotic translation initiation factor 4E. The test is described as follows: Binding affinity to N-terminal 10His-tagged m7GDP-bound recombinant human eIF4E expressed in Escherichia coli BL21 (DE3) cells assessed as dissociation constant at 25 degreeC by surface plasmon resonance analysis.

T1 sequence (P06730 whole entry): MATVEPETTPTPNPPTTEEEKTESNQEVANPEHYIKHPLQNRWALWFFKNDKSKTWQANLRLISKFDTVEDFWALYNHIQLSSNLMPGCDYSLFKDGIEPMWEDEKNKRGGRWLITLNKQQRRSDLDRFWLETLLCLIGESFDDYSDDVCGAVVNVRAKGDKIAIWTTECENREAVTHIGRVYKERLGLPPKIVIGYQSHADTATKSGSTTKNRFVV

Regarding `CC(=O)N[C@@H](CCCCN)C(=O)N[C@@H](CCCCN)C(=O)N[C@@H](CCCNC(=N)N)C(=O)N[C@@H](Cc1ccc(O)cc1)C(=O)N[C@@H](CC(=O)O)C(=O)N[C@@H](CCCNC(=N)N)C(=O)N[C@@H](CCC(=O)O)C(=O)N[C@@H](Cc1ccccc1)C(=O)N[C@@H](CC(C)C)C(=O)N[C@@H](CC(C)C)C(=O)NCC(=O)N[C@@H](Cc1ccccc1)C(=O)N[C@@H](CCC(N)=O)C(=O)N[C@@H](Cc1ccccc1)C(N)=O`, the Kd in test [1] was 0.046 nM. With Ac-KKRYSREQLLGL-NH2, the Kd in test [2] came out at 123 nM.

By Kd is commonly meant the equilibrium constant for the complex coming apart.

These data come from BindingDB's records for doi:10.1021/acs.jmedchem.9b00068 (University of Michigan, 2019).
